Measurements from ChEMBL document CHEMBL1128845, “Novel trityl linked drug immunoconjugates for cancer therapy” (Bioorg Med Chem Lett, 1995).
Converted amounts (≈) assume the structure as drawn.

Assays:
LS174T = test: Concentration required to inhibit the incorporation of [3H]leucine to 50 percent of control uptake in LS174T (CEA +ve) Human Colon Carcinoma cells; format: functional, cell-based
[1] = Conjugation ratio (CR) indicating the number of moles of compound required per 1 mole of antibody (having Molar input ratio (MIR) = 8) was determined

For `COc1ccc(C(Nc2nc(N)nc3c2ncn3[C@@H]2O[C@H](CO)[C@@H](O)C2(F)F)(c2ccc(C)cc2)c2ccc(C(N)=O)cc2)cc1` (stereo partly drawn), the IC50 (LS174T) was 2.71 µg/mL (≈ 4.29 µM) and the CR [1] was 7.49.

Work on `COc1ccc(C(Nc2nc(N)nc3c2ncn3[C@@H]2O[C@H](CO)[C@@H](O)C2(F)F)(c2ccc(OC)cc2)c2cccc(C(N)=O)c2)cc1` yielded an IC50 (LS174T) of 0.352 µg/mL (≈ 0.544 µM) and a CR [1] of 6.44.

`NC(=O)c1ccc(C(Nc2nc(N)nc3c2ncn3[C@@H]2O[C@H](CO)[C@@H](O)C2(F)F)(c2ccccc2)c2ccccc2)cc1` gave an IC50 (LS174T) of 10 µg/mL (≈ 17 µM) and a CR [1] of 4.44.

Molecule `COc1ccc(C(Nc2nc(N)nc3c2ncn3[C@@H]2O[C@H](CO)[C@@H](O)C2(F)F)(c2ccc(OC)cc2)c2ccc(C(N)=O)cc2)cc1` has an IC50 (LS174T) of 0.27 µg/mL (≈ 0.417 µM) and a CR [1] of 7.44.

In the case of `COc1ccc(C(Nc2nc(N)nc3c2ncn3[C@@H]2O[C@H](CO)[C@@H](O)C2(F)F)(c2ccccc2)c2ccc(C(N)=O)cc2)cc1` (stereo partly drawn), the IC50 (LS174T) is reported as 4.94 µg/mL (≈ 8 µM) and the CR [1] is reported as 5.73.

Molecule `Cc1ccc(C(Nc2nc(N)nc3c2ncn3[C@@H]2O[C@H](CO)[C@@H](O)C2(F)F)(c2ccccc2)c2ccc(C(N)=O)cc2)cc1` (stereo partly drawn) has an IC50 (LS174T) of 6.04 µg/mL (≈ 10 µM) and a CR [1] of 5.2.

`Nc1nc(N)c2ncn([C@@H]3O[C@H](CO)[C@@H](O)C3(F)F)c2n1` gave an IC50 (LS174T) of 0.26 µg/mL (≈ 0.86 µM).
